Test results: patent US10000765B2, “Gene encoding cytochrome P450, and use thereof” (NATIONAL INSTITUTE OF AGROBIOLOGICAL SCIENCES, priority 2011, dated 2018)

What was measured:
[1] = tested on: Wild-type rice (Nipponbare); assay: Drug sensitivity test on gellan gum medium, wild-type rice; assay type: in vivo, Oryza sativa; conditions: plant height compared with drug-free medium
Protocol: (§1) Next, 1.6 g of Hoagland's mix (Sigma-Aldrich Corporation) and 3 g of Gelrite (Wako Pure Chemical Industries, Ltd.) were suspended in 1 L of distilled water. Then, the mixture was dissolved and heated in a microwave. After that, the mixture was cooled to 50 to 60 degree C., and BS was added at a final concentration of 1 μM. This mixture was dispensed into 30-mL tubular bottles at 15 mL to prepare a gellan gum medium. Next, CSSL rice paddies were soaked in 0.5% sodium hypochlorite for about 20 minutes, and were then washed well with water. These paddies were soaked in distilled water, and kept at 27 degree C. for 3 to 5 days for germination. Germinating seeds were softly planted in sprout-side up on the gellan gum medium. These samples, together with a beaker filled with distilled water, were placed in a transparent case, which was then covered with a clear-plastic wrap. These samples were grown at 27 degree C. under fluorescent light illumination (14 hours of a light period and 10 hours of a dark period) for 7 to 9 days.
(§2) According to the method of Example 1, a gellan gum medium containing a test drug at a concentration of 0.01, 0.1, 1, or 10 μM was prepared. Rice seeds were sterilized, germinated, seeded in the medium, and cultivated.

[2] = tested on: CYP72A31-overexpressing rice (K31-4-6-2); assay: Drug sensitivity test on gellan gum medium, CYP72A31-overexpressing rice; assay type: in vivo, Oryza sativa; conditions: for CK ratio (%): plant height compared with drug-free medium
Protocol: as §1, §2

[3] = tested on: non-transformed Arabidopsis thaliana (NT); assay: Drug sensitivity test on drug-containing MS medium, non-transformed Arabidopsis thaliana; assay type: in vivo
Protocol: (§3) A bag of mixed salts for Murashige-Skoog (MS) medium (manufactured by Wako Pure Chemical Industries, Ltd.) 20 g of sucrose, 3 mg of thiamin hydrochloride, 5 mg of nicotinic acid, and 0.5 mg of pyridoxine hydrochloride were dissolved in distilled water, and filled up to 1 L with distilled water. After pH adjustment to 5.8 to 6.3 with 1 M KOH, 3 g of Gelrite was added to the solution, and dissolved using a microwave. After that, the mixture was autoclaved to prepare a sterile MS medium. A test drug was added to this sterile MS medium so as to make a final concentration of 1.3, 4.1, 12, 37, 110, or 330 nM. Arabidopsis thaliana from a sterilized seed was seeded in the drug-containing MS medium, and cultivated at 22° C. for 12 to 14 days in a continuous light period.
(§4) Note that the drugs used in this Example were bispyribac-sodium, pyrithiobac-sodium, pyriminobac, bensulfuron-methyl, penoxsulam, pyrazosulfuron-ethyl, amidosulfuron, imazosulfuron, nicosulfuron, and propyrisulfuron.

[4] = tested on: Arabidopsis thaliana (K31-4-2) transformed with a Kasalath-derived CYP72A31 gene; assay: Drug sensitivity test on drug-containing MS medium, Arabidopsis thaliana transformed with Kasalath-derived CYP72A31 gene; assay type: in vivo; conditions: for Rate of emerging of true leaf (%): day 14 after seeding
Protocol: as §3, §4

[5] = drug 1.3 nM, day 14 after seeding
[6] = drug 4.1 nM, day 14 after seeding
[7] = drug 12 nM, day 14 after seeding
[8] = drug 37 nM, day 14 after seeding
[9] = drug 110 nM, day 14 after seeding
[10] = drug 330 nM, day 14 after seeding
[11] = K31-4-2, Tables 2 and 3, FIGS. 20 to 24
[12] = maximum drug concentration for 80% or more emerging of true leaves, K31-4-2 / NT, day 14

SMILES | Rate of emerging of true leaf (%) [3, 5] [%] | Rate of emerging of true leaf (%) [3, 6] [%] | Rate of emerging of true leaf (%) [3, 7] [%] | Rate of emerging of true leaf (%) [3, 8] [%] | Rate of emerging of true leaf (%) [3, 9] [%] | Rate of emerging of true leaf (%) [3, 10] [%] | Resistance of transformed Arabidopsis thaliana to the drug [4, 11] | Rate of emerging of true leaf (%) ([4]; K31-4-2, drug 1.3 nM) | Rate of emerging of true leaf (%) ([4]; K31-4-2, drug 4.1 nM) | Rate of emerging of true leaf (%) ([4]; K31-4-2, drug 12 nM) | Rate of emerging of true leaf (%) ([4]; K31-4-2, drug 37 nM) | Rate of emerging of true leaf (%) ([4]; K31-4-2, drug 110 nM) | Rate of emerging of true leaf (%) ([4]; K31-4-2, drug 330 nM) | Ratio of sensitivity [4, 12] | Ratio of sensitivity ([4]; in vivo) | Resistance of transformed Arabidopsis thaliana to the drug ([4]; in vivo) | other results
CCc1cc(C)cc(CC)c1-c1c(OC(=O)C(C)(C)C)n2n(c1=O)CCOCC2 [Pinoxaden, pinoxaden] | – | – | – | – | – | – | – | – | – | – | – | – | – | – | – | – | CK ratio (%) ([1]; drug 0.01 μM): 59%; CK ratio (%) ([1]; drug 0.1 μM): 3%; CK ratio (%) ([1]; drug 1 μM): 3%; CK ratio (%) ([1]; drug 10 μM): 3%; Resistance of transformed rice to the drug ([2]; Table 4 and FIG. 25): exhibited resistance; Ratio of sensitivity ([2]; maximum drug concentration for CK ratio of 40% or more, K31-4-6-2 / wild-type rice): 10; CK ratio (%) ([2]; K31-4-6-2, drug 0.01 μM): 95%; CK ratio (%) ([2]; K31-4-6-2, drug 0.1 μM): 48%; CK ratio (%) ([2]; K31-4-6-2, drug 1 μM): 9%; CK ratio (%) ([2]; K31-4-6-2, drug 10 μM): 3%
CCOC(=O)c1cnn(C)c1S(=O)(=O)NC(=O)Nc1nc(OC)cc(OC)n1 [Pyrazosulfuron-ethyl, pyrazosulfuron-ethyl] | 0 | 0 | 0 | 0 | 0 | 0 | exhibited resistance | 100 | 100 | 90 | 0 | 0 | 0 | >9 | – | – | –
COc1cc(OC)nc(NC(=O)NS(=O)(=O)N(C)S(C)(=O)=O)n1 [Amidosulfuron, amidosulfuron] | 100 | 100 | 0 | 0 | 0 | 0 | – | – | – | – | – | – | – | – | 3 | exhibited resistance | –
COc1cc(OC)nc(Sc2cccc(Cl)c2C(=O)O)n1 [Pyrithiobac-sodium, pyrithiobac-sodium] | – | – | – | – | – | – | – | – | – | – | – | – | – | – | 3 | exhibited resistance | Rate of emerging of true leaf (%) ([3]; drug 1.3 nM, day 12 after seeding): 44%; Rate of emerging of true leaf (%) ([3]; drug 4.1 nM, day 12 after seeding): 44%; Rate of emerging of true leaf (%) ([3]; drug 12 nM, day 12 after seeding): 0%; Rate of emerging of true leaf (%) ([3]; drug 37 nM, day 12 after seeding): 0%; Rate of emerging of true leaf (%) ([3]; drug 110 nM, day 12 after seeding): 0%; Rate of emerging of true leaf (%) ([3]; drug 330 nM, day 12 after seeding): 0%
COc1cnc(OC)n2nc(NS(=O)(=O)c3c(OCC(F)F)cccc3C(F)(F)F)nc12 [Penoxsulam, penoxsulam] | 50 | 10 | 0 | 0 | 0 | 0 | – | – | – | – | – | – | – | – | >254 | exhibited resistance | –
COc1cc(OC)nc(NC(=O)NS(=O)(=O)c2ncccc2C(=O)N(C)C)n1 [Nicosulfuron, nicosulfuron] | 100 | 100 | 0 | 0 | 0 | 0 | exhibited resistance | 100 | 100 | 100 | 100 | 100 | 10 | 27 | – | – | –
CON=C(C)c1cccc(Oc2nc(OC)cc(OC)n2)c1C(=O)O [Pyriminobac, pyriminobac] | 100 | 90 | 10 | 0 | 0 | 0 | exhibited resistance | 100 | 100 | 100 | 100 | 100 | 50 | 27 | – | – | –
COC(=O)c1ccccc1CS(=O)(=O)NC(=O)Nc1nc(OC)cc(OC)n1 [Bensulfuron-methyl, bensulfuron-methyl] | 30 | 0 | 0 | 0 | 0 | 0 | – | – | – | – | – | – | – | – | >28 | exhibited resistance | –
CCCc1ccc2nc(Cl)c(S(=O)(=O)NC(=O)Nc3nc(OC)cc(OC)n3)n2n1 [Propyrisulfuron, propyrisulfuron] | 10 | 0 | 0 | 0 | 0 | 0 | exhibited resistance | 100 | 100 | 100 | 70 | 0 | 0 | >9 | – | – | –
COc1cc(OC)nc(NC(=O)NS(=O)(=O)c2c(Cl)nc3ccccn23)n1 [Imazosulfuron, imazosulfuron] | 40 | 10 | 0 | 0 | 0 | 0 | exhibited resistance | 100 | 100 | 100 | 100 | 90 | 0 | >85 | – | – | –
